According to US6335436B1, “Oligonucleotides active against drug-resistant bacteria” (priority 1995, dated 2002):

Key:
Format in all cases: cell-based, Mycobacterium smegmatis
M. smegmatis ATCC 607 [1] = assay: Inhibition of M. smegmatis growth in broth cultures (cell counts); conditions: for Cell Numbers per ml × 10^6: no ODS
M. smegmatis ATCC 607 [2] = assay: MIC of ethambutol in the presence of oligodeoxynucleotide phosphorothioates in broth cultures; conditions: Mycolicibacterium smegmatis, ATCC607, 336 h, read-out: MIC of ethambutol
M. smegmatis mc^2155 = assay: as above; conditions: Mycolicibacterium smegmatis, 336 h, no ODS, at least 99% inhibition of cell growth during two weeks

CC[C@@H](CO)NCCN[C@@H](CC)CO [Ethambutol, ethambutol]
Cell Numbers per ml × 10^6 (M. smegmatis ATCC 607 [1]; Table I, ethambutol 0.5 ug/ml alone, 24 hrs): 71 × 10^6 cells per ml | Cell Numbers per ml × 10^6 (M. smegmatis ATCC 607 [1]; Table I, ethambutol 0.5 ug/ml alone, 48 hrs): 240 × 10^6 cells per ml | Cell Numbers per ml × 10^6 (M. smegmatis ATCC 607 [1]; Table I, ethambutol 0.5 ug/ml alone, 72 hrs): 411 × 10^6 cells per ml | Cell Numbers per ml × 10^6 (M. smegmatis ATCC 607 [1]; Table I, ethambutol 1 ug/ml alone, 24 hrs): 39 × 10^6 cells per ml | Cell Numbers per ml × 10^6 (M. smegmatis ATCC 607 [1]; Table I, ethambutol 1 ug/ml alone, 48 hrs): 109 × 10^6 cells per ml | Cell Numbers per ml × 10^6 (M. smegmatis ATCC 607 [1]; Table I, ethambutol 1 ug/ml alone, 72 hrs): 172 × 10^6 cells per ml | Cell Numbers per ml × 10^6 (M. smegmatis ATCC 607 [1]; Table I, ethambutol 5 ug/ml alone, 24 hrs): 25 × 10^6 cells per ml | Cell Numbers per ml × 10^6 (M. smegmatis ATCC 607 [1]; Table I, ethambutol 5 ug/ml alone, 48 hrs): 68 × 10^6 cells per ml | Cell Numbers per ml × 10^6 (M. smegmatis ATCC 607 [1]; Table I, ethambutol 5 ug/ml alone, 72 hrs): 111 × 10^6 cells per ml | Cell Numbers per ml × 10^6 (M. smegmatis ATCC 607 [1]; Table III, ethambutol 0.5 μg/ml alone, 24 hrs): 77 × 10^6 cells per ml | Cell Numbers per ml × 10^6 (M. smegmatis ATCC 607 [1]; Table III, ethambutol 0.5 μg/ml alone, 48 hrs): 189 × 10^6 cells per ml | Cell Numbers per ml × 10^6 (M. smegmatis ATCC 607 [1]; Table III, ethambutol 0.5 μg/ml alone, 72 hrs): 388 × 10^6 cells per ml | MIC (M. smegmatis ATCC 607 [2]): 25 µg/mL | MIC (M. smegmatis mc^2155): 30 µg/mL

N[C@@H]1CONC1=O [D-cycloserine]
Cell Numbers per ml × 10^6 (M. smegmatis ATCC 607 [1]; Table IV, free D-cycloserine 1 μg/ml alone, 24 hrs): 617 × 10^6 cells per ml | Cell Numbers per ml × 10^6 (M. smegmatis ATCC 607 [1]; Table IV, free D-cycloserine 1 μg/ml alone, 48 hrs): 549 × 10^6 cells per ml | Cell Numbers per ml × 10^6 (M. smegmatis ATCC 607 [1]; Table IV, free D-cycloserine 1 μg/ml alone, 72 hrs): 504 × 10^6 cells per ml | Cell Numbers per ml × 10^6 (M. smegmatis ATCC 607 [1]; Table IV, free D-cycloserine 5 μg/ml alone, 24 hrs): 551 × 10^6 cells per ml | Cell Numbers per ml × 10^6 (M. smegmatis ATCC 607 [1]; Table IV, free D-cycloserine 5 μg/ml alone, 48 hrs): 482 × 10^6 cells per ml | Cell Numbers per ml × 10^6 (M. smegmatis ATCC 607 [1]; Table IV, free D-cycloserine 5 μg/ml alone, 72 hrs): 420 × 10^6 cells per ml | Cell Numbers per ml × 10^6 (M. smegmatis ATCC 607 [1]; Table IV, free D-cycloserine 30 μg/ml alone, 24 hrs): 363 × 10^6 cells per ml | Cell Numbers per ml × 10^6 (M. smegmatis ATCC 607 [1]; Table IV, free D-cycloserine 30 μg/ml alone, 48 hrs): 291 × 10^6 cells per ml | Cell Numbers per ml × 10^6 (M. smegmatis ATCC 607 [1]; Table IV, free D-cycloserine 30 μg/ml alone, 72 hrs): 236 × 10^6 cells per ml | inhibition of growth (M. smegmatis ATCC 607 [1]; free D-cycloserine in liquid medium, 1.0 μg/ml): minimal inhibition of growth | inhibition of M. smegmatis growth (M. smegmatis ATCC 607 [1]; free D-cycloserine in liquid medium, 10-30 μg/ml): significant inhibition
